Tests used:
superovulated mice [1] = test: histological sections of ovaries collected 18 hours after hCG injection; format: in vivo
Description: (§1) BQ788 was further tested to examine the manner in which this ETB antagonist reduced the number of oocytes. Histological sections of ovaries collected at 18 hours after hCG injection in superovulated mice that received either vehicle or BQ788 through i/p at 8 hours after hCG, were examined and found to have striking differences in the number of corpus lutea (photo not shown).

endothelin-2 = test: inhibition of endothelin-2 function
superovulated mice [2] = test: oocyte count after antagonist injection during superovulation; format: in vivo; conditions: for decrease in number of oocytes: time effect
Description: Pharmacological blockers of the endothelin receptor system were implemented to elucidate the role of ET-2 during superovulation. JKC301 (ETRA antagonist) and BQ788 (ETB antagonist) were injected 6 hours after hCG injection and an oocyte count was tabulated. […] BQ788 treatment was further investigated and found to have a time effect. BQ788 posted a 39%, 58%, and 66% decrease in number of oocytes at 4, 6 and 8 hours, respectively, after hCG injection.
as §1

CCCC[C@@H](NC(=O)[C@@H](Cc1cn(C(=O)OC)c2ccccc12)NC(=O)[C@H](CC(C)(C)C)NC(=O)N1[C@H](C)CCC[C@@H]1C)C(=O)O [BQ788, N-cis-2,6-dimethylpiperidinocarbonyl-L-gamma-methylleucyl-D-1-methoxycarbonyltryptophanyl-D-norleucine] was tested, and the inhibition of ovulation (superovulated mice [1]; given at 8 hours, a stage very close to the ovulation) was “inhibition of ovulation by blocking follicle rupture in the ovary”, the “number of corpus lutea and unruptured follicles in ovary sections” value (superovulated mice [1]; i/p at 8 hours after hCG, ovaries collected at 18 hours after hCG, versus vehicle) was “few corpus lutea and numerous unruptured follicles” and the “function of endothelin-2” value (endothelin-2) was “inhibits function of endothelin-2”. For the same compound, the “decrease in the number of oocytes” value (superovulated mice [2]; antagonist injected 6 hours after hCG injection, comparison of JKC301 and BQ788) was 65%, the “decrease in number of oocytes” value (superovulated mice [2]; BQ788 given 4 hours after hCG injection) was 39% and the “decrease in number of oocytes” value (superovulated mice [2]; BQ788 given 6 hours after hCG injection) was 58%. For the same compound, the “decrease in number of oocytes” value (superovulated mice [2]; BQ788 given 8 hours after hCG injection) was 66%.
